Assay results published in patent publication US8822455B2, “Fused aminodihydrothiazine derivatives” (Eisai R&D Management Co., Ltd., priority 2011, dated 2014).

tested on: Aβ42; test: In vitro cellular assay (Aβ42): quantification of Aβ peptide in culture of neurons from rat fetus brain (ELISA); format: cell-based; settings: Primary cortical neuron, 72 h, rat primary cortical neurons (embryonic day 18 Wistar), 3 days after addition of compound, read-out: Cell IC50
Procedure: In vitro Cellular Assay (Aβ42):
Quantification of AβPeptide in Culture of Neurons from Rat Fetus Brain
(1) Rat Primary Neuronal Culture
Primary neuronal cultures were prepared from the cerebral cortex of embryonic day 18 Wistar rats (Charles River, UK). Specifically, the embryos were aseptically removed from pregnant rats under ether anesthesia. The brain was isolated from the embryo and immersed in HBSS (Sigma Aldrich #H9269) containing 10 mM HEPES (Gibco #15630-056). The cerebral cortex was collected from the isolated brain under a stereoscopic microscope. The cerebral cortex fragments collected were enzymatically treated in an enzyme solution containing 0.05% trypsin-EDTA solution (GIBCO, #25300) at 37° C. for 20 minutes to disperse the cells. The cells were then washed twice and then gently resuspended in Neurobasal medium (Gibco #21103) supplemented with 2% B27 supplement (GIBCO #17504-044), 0.5 mM L-glutamine (GIBCO #25030), 1×N2 (GIBCO #17502-048), 100 ug/ml Pen/Strep (GIBCO 15140-122) and 5% heat inactivated FCS (PAA #A15-701). The cell dispersion was filtered through a 40-μm nylon mesh (BD Falcon #352340) to remove the remaining cell mass, and thus a neuronal cell suspension was obtained. The neuronal cell suspension was diluted with the medium above and then plated in a volume of 100 μL/well at an initial cell density of 3.25×10^5 cells/ml in poly-D-lysine coated 96-well culture plate (Greiner #655940). The plated cells were cultured in the culture plate at 37° C. in 5% CO2-95% air for 24 hrs. The total amount of the medium was replaced with ‘assay Neurobasal medium’ (as above excluding heat inactivated FCS), and then the cells were cultured for a further five days.
The drug was added to the culture plate on Day 6 of culture as follows. 8 point compound serial dilutions were generated in DMSO at a concentration of ×1000 that of the final assay concentration (FAC). Compound solutions were then prepared by adding 999 ul of ‘Assay Neurobasal media’ (as described in above section) to 1 ul of DMSO compound stock. The total amount of the medium was removed from each of the cell plate wells, and 200 μL/well of compound solution was added. The final DMSO concentration was 0.1%.
The cells were cultured for either 1 or 3 days after addition of the compound for ABx-40 and ABx-42 assays respectively. 150 μl of sample medium was collected and used as the ELISA sample.
Human/Rat β Amyloid (42) ELISA Kit Wako (#290-62601) and Human/Rat β Amyloid (40) ELISA Kit Wako (#294-62501) from Wako Pure Chemical Industries, Ltd. were used for Aβ ELISA Aβ ELISA was carried out according to the protocols recommended by the manufacturers, described in the documents accompanying the kits. The results were shown as percentage of the control groups and IC50 values for each compound were determined using four parameter logistic fit model using the XLFIT5 software package (IDBS).

First: C[C@H]1OC[C@]2(c3cc(-c4cccnc4F)ccc3F)N=C(N)SC[C@H]12 [Example 7, (4aS,5R,7aS)-7a-(2-Fluoro-5-(2-fluoropyridin-3-yl)phenyl)-5-methyl-4a,5,7,7a-tetrahydro-4H-furo[3,4-d][1,3]thiazin-2-amine]
Second: Cc1ncccc1-c1ccc(F)c([C@]23CO[C@H](C)[C@H]2CSC(N)=N3)c1 [Example 18, (4aS,5R,7aS)-7a-(2-fluoro-5-(2-methylpyridin-3-yl)phenyl)-5-methyl-4a,5,7,7a-tetrahydro-4H-furo[3,4-d][1,3]thiazin-2-amine]
The IC50 of the first is 3.5-fold lower: 62 nM for the first, 217 nM for the second. The first is the more potent here.

First: Cc1cncc(-c2ccc(F)c([C@]34CO[C@H](C)[C@H]3CSC(N)=N4)c2)c1 [Example 15, (4aS,5R,7aS)-7a-(2-Fluoro-5-(5-methylpyridin-3-yl)phenyl)-5-methyl-4a,5,7,7a-tetrahydro-4H-furo[3,4-d][1,3]thiazin-2-amine]
Second: C[C@H]1OC[C@]2(c3cc(-c4ccn[nH]4)ccc3F)N=C(N)SC[C@H]12 [Example 17, (4aS,5R,7aS)-7a-(2-Fluoro-5-(1H-pyrazol-5-yl)phenyl)-5-methyl-4a,5,7,7a-tetrahydro-4H-furo[3,4-d][1,3]-thiazin-2-amine]
The IC50 of the first is 9.7-fold lower: 101 nM for the first, 977 nM for the second. The first is the more potent here.

COc1cccc(-c2ccc(F)c([C@]34CO[C@H](C)[C@H]3CSC(N)=N4)c2)n1 [Example 24, (4aS,5R,7aS)-7a-(2-fluoro-5-(6-methoxypyridin-2-yl)phenyl)-5-methyl-4a,5,7,7a-tetrahydro-4H-furo[3,4-d][1,3]thiazin-2-amine] was tested, and the IC50 was greater than 1000 nM.
